Assay results taken from the NIST ThermoML archive (doi:10.1016/j.fluid.2016.08.002).

Test: xn = mol fraction of the nth substance listed
Settings: Gas, Vibrating tube method

S [hydrogen sulfide] + C
Settings	mass density [kg/m3]
273.05 K, 6535 kPa, x2 = 0.8197	73.36
273.05 K, 19490 kPa, x2 = 0.8197	268.43
273.05 K, 20545 kPa, x2 = 0.8197	276.64
273.05 K, 27474 kPa, x2 = 0.714	379.67
273.05 K, 29015 kPa, x2 = 0.714	385.58
273.06 K, 1024 kPa, x2 = 0.8197	8.86
273.06 K, 1546 kPa, x2 = 0.8197	13.54
273.06 K, 1998 kPa, x2 = 0.8197	17.83
273.06 K, 3515 kPa, x2 = 0.714	41.26
273.06 K, 4568 kPa, x2 = 0.8197	45.89
273.06 K, 7007 kPa, x2 = 0.8197	80.78
273.06 K, 7503 kPa, x2 = 0.8197	88.86
273.06 K, 19898 kPa, x2 = 0.8197	271.74
273.06 K, 27956 kPa, x2 = 0.714	381.54
273.07 K, 2472 kPa, x2 = 0.8197	22.64
273.07 K, 2991 kPa, x2 = 0.714	34.29
273.07 K, 4037 kPa, x2 = 0.8197	39.48
273.07 K, 19004 kPa, x2 = 0.8197	264.22
273.07 K, 21088 kPa, x2 = 0.8197	280.47
273.07 K, 22026 kPa, x2 = 0.8197	286.58
273.08 K, 3006 kPa, x2 = 0.8197	28.12
273.08 K, 3496 kPa, x2 = 0.8197	33.34
273.08 K, 8037 kPa, x2 = 0.8197	97.86
273.08 K, 17450 kPa, x2 = 0.714	319.61
273.08 K, 17522 kPa, x2 = 0.8197	249.57
273.08 K, 18504 kPa, x2 = 0.8197	259.61
273.08 K, 21490 kPa, x2 = 0.8197	283.16
273.09 K, 8509 kPa, x2 = 0.8197	106.04
273.09 K, 8697 kPa, x2 = 0.8197	109.34
273.09 K, 18521 kPa, x2 = 0.714	328.7
273.1 K, 18017 kPa, x2 = 0.8197	254.8
273.1 K, 18931 kPa, x2 = 0.714	331.97
273.1 K, 22561 kPa, x2 = 0.8197	289.86
273.1 K, 28471 kPa, x2 = 0.714	383.53
273.11 K, 9417 kPa, x2 = 0.8197	122.17
273.11 K, 10159 kPa, x2 = 0.8197	135.6
273.11 K, 14299 kPa, x2 = 0.8197	207.01
273.11 K, 17004 kPa, x2 = 0.8197	243.74
273.11 K, 17956 kPa, x2 = 0.714	324.07
273.11 K, 23102 kPa, x2 = 0.8197	293.06
273.12 K, 23507 kPa, x2 = 0.8197	295.4
273.13 K, 10896 kPa, x2 = 0.8197	148.97
273.13 K, 11490 kPa, x2 = 0.8197	159.68
273.13 K, 12024 kPa, x2 = 0.8197	169.16
273.13 K, 13513 kPa, x2 = 0.8197	194.52
273.13 K, 14007 kPa, x2 = 0.8197	202.45
273.13 K, 14904 kPa, x2 = 0.8197	216.11
273.13 K, 15510 kPa, x2 = 0.8197	224.73
273.13 K, 16041 kPa, x2 = 0.8197	231.85
273.13 K, 16504 kPa, x2 = 0.8197	237.74
273.13 K, 24081 kPa, x2 = 0.8197	298.69
273.13 K, 27492 kPa, x2 = 0.8197	316.71
273.13 K, 28026 kPa, x2 = 0.8197	319.37
273.13 K, 28568 kPa, x2 = 0.8197	321.92
273.13 K, 29088 kPa, x2 = 0.8197	324.13
273.13 K, 29546 kPa, x2 = 0.8197	325.75
273.13 K, 29999 kPa, x2 = 0.8197	327.01
273.14 K, 10580 kPa, x2 = 0.8197	143.25
273.14 K, 21825 kPa, x2 = 0.714	351.99
273.14 K, 24511 kPa, x2 = 0.8197	301.13
273.14 K, 26076 kPa, x2 = 0.8197	309.49
273.14 K, 26577 kPa, x2 = 0.8197	312.08
273.14 K, 26982 kPa, x2 = 0.8197	314.11
273.15 K, 25182 kPa, x2 = 0.8197	304.96
273.15 K, 25661 kPa, x2 = 0.8197	307.41
273.16 K, 13305 kPa, x2 = 0.8197	191.11
